# Values of other authors, collected in patent publication US12485106B2, “Methods of treating fibrotic liver diseases or conditions with indeglitazar” (PLEIOGENIX INC., priority 2023, dated 2025).
# Target: T1, PPARδ (Homo sapiens, UniProt Q03181)
# T1 sequence (Q03181 1-441): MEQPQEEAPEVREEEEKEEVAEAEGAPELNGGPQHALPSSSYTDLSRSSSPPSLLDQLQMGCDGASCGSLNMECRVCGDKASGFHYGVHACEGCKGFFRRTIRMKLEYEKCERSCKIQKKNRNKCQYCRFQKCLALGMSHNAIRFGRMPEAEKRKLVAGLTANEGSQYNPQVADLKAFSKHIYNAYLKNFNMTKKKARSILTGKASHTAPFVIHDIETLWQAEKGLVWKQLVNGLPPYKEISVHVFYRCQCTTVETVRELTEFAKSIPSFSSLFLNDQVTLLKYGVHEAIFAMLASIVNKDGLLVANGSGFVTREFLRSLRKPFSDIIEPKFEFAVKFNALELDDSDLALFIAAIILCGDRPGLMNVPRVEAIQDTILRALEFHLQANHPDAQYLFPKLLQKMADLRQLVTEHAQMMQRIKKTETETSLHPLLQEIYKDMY
# Conditions: cited from earlier work
smiles,measurement,value
"COc1ccc(S(=O)(=O)n2cc(CCC(=O)O)c3cc(OC)ccc32)cc1 [Indeglitazar, 3-[5-methoxy-1-(4-methoxybenzenesulfonyl)-1H-indol-3-yl]-propanoic acid]",agonism towards PPARδ,partial agonism
